Drawing on patent US20210395239A1 (Hoffmann-La Roche Inc., priority 2018, published 2021), this text covers IC50 for 22 compounds.

This experiment has as its target T1, human TLR7 (Homo sapiens, UniProt Q9NYK1).
T1 construct: host or cells: HEK293 (HEK-Blue hTLR7)
T1 sequence (Q9NYK1 27-1049): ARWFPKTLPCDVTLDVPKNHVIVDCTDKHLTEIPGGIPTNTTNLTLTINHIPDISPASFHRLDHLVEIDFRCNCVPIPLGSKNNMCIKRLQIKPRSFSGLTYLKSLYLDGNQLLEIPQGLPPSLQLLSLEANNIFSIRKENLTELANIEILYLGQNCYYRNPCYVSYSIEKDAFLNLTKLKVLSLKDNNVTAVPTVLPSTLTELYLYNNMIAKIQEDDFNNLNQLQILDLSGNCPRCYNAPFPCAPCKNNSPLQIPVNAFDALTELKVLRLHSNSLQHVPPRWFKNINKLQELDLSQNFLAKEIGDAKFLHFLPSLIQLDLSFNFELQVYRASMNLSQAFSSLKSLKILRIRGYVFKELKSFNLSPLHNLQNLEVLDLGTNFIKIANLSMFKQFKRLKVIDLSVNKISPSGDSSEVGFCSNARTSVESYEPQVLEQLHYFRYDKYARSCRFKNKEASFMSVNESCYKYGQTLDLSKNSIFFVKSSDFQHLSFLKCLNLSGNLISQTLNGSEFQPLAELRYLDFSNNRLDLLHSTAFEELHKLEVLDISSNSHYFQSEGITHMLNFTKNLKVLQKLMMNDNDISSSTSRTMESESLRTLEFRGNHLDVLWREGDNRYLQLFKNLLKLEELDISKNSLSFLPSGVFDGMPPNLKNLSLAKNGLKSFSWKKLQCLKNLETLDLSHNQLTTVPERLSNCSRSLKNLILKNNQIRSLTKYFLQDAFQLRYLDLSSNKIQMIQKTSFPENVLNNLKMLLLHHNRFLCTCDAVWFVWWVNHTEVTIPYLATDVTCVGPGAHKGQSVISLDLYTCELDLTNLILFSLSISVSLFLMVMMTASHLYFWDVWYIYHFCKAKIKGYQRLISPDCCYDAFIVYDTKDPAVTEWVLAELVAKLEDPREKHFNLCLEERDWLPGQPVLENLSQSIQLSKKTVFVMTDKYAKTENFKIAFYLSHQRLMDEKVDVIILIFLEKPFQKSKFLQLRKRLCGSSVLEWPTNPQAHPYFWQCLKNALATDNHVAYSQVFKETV
Briefly: HEK293-Blue-hTLR-7 cells assay (SEAP reporter, R848 stimulation). In kind it is cell-based. The following applies: HEK293-Blue-hTLR7 cells, R848, 20 hrs; read-out: HEK/hTLR7 IC50. The method in brief: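 HEK293-Blue-hTLR7 cells (NF-κB/AP-1-driven SEAP reporter) were stimulated with R848 alongside serially diluted compound at 1% final DMSO for 20 h at 37 °C. Supernatant SEAP was then developed with QUANTI-Blue for 2 h at 37 °C and absorbance read at 620–655 nm; antagonism is measured as reduced reporter signal.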
For the compound `C[C@@H]1CN(c2ccc(C#N)n3ncc(F)c23)C[C@H](CN2CCN(c3ccc(N4C[C@H]5NCCO[C@@H]5C4)nc3)CC2)O1` [Example 168, 4-[(2S,6R)-2-[[4-[6-[(4aR,7aR)-3,4,4a,5,7,7a-hexahydro-2H-pyrrolo[3,4-b][1,4]oxazin-6-yl]-3-pyridyl]piperazin-1-yl]methyl]-6-methyl-morpholin-4-yl]-3-fluoro-pyrazolo[1,5-a]pyridine-7-carbonitrile], the IC50 is 20 nM.

With `C[C@@H]1CN(c2ccc(C#N)c3ncccc23)C[C@H](CN2CCN(c3ccc([C@H]4CNCCO4)cc3)CC2)O1` [Example 20, 5-[(2R,6S)-2-methyl-6-[[4-[4-[(2S)-morpholin-2-yl]phenyl]piperazin-1-yl]methyl]morpholin-4-yl]quinoline-8-carbonitrile], the IC50 was determined as 20 nM.

As to `CO[C@H]1CN(c2nc(C)cc(N3CCN(C[C@H]4CN(c5ccc(C#N)c6ncccc56)C[C@@H](C)O4)CC3)n2)C[C@H]1N` [Example 60, 5-[(2R,6S)-2-methyl-6-[[4-[6-methyl-2-[cis-3-amino-4-methoxy-pyrrolidin-1-yl]pyrimidin-4-yl]piperazin-1-yl]methyl]morpholin-4-yl]quinoline-8-carbonitrile], the IC50 came out at 11 nM. The figure for `C[C@@H]1CN(c2ccc(C#N)c3ncccc23)C[C@H](CN2CCN(c3ccnc(NC4CNC4)n3)CC2)O1` [Example 28, 5-[(2S,6R)-2-[[4-[2-(azetidin-3-ylamino)pyrimidin-4-yl]piperazin-1-yl]methyl]-6-methyl-morpholin-4-yl]quinoline-8-carbonitrile] is 11 nM; for `COc1cnc(N2CCNCC2)nc1N1CCN(C[C@H]2CN(c3ccc(C#N)c4ncccc34)C[C@@H](C)O2)CC1` [Example 48, 5-[(2S,6R)-2-[[4-(5-methoxy-2-piperazin-1-yl-pyrimidin-4-yl)piperazin-1-yl]methyl]-6-methyl-morpholin-4-yl]quinoline-8-carbonitrile] it is 9 nM; for `C[C@@H]1CN(c2cc(=O)n(C)c3ncccc23)C[C@H](CN2CC(c3ccc(N4C[C@H]5NCCO[C@@H]5C4)cc3)C2)O1` [Example 182, 4-[(2S,6R)-2-[[3-[4-[(4aR,7aR)-3,4,4a,5,7,7a-hexahydro-2H-pyrrolo[3,4-b][1,4]oxazin-6-yl]phenyl]azetidin-1-yl]methyl]-6-methyl-morpholin-4-yl]-1-methyl-1,8-naphthyridin-2-one] it is 26 nM. Turning to `C[C@@H]1CN(c2ccc(C#N)c3ncccc23)C[C@H](CN2CCN(c3cccc(NC4CNC4)n3)CC2)O1` [Example 38], the IC50 came out at 16 nM. The figure for `C[C@@H]1CN(c2ccc(C#N)c3ncccc23)C[C@H](CN2CCN(c3cnc(N4CCNCC4)nc3)CC2)O1` [Example 12, 5-[(2R,6S)-2-methyl-6-[[4-(2-piperazin-1-ylpyrimidin-5-yl)piperazin-1-yl]methyl]morpholin-4-yl]quinoline-8-carbonitrile] is 12 nM; for `C[C@@H]1CN(c2ccc(C#N)n3ncc(F)c23)C[C@H](CN2CCN(c3ccc(N4CC5(CCN5)C4)nc3)CC2)O1` [Example 179, 4-[(2S,6R)-2-[[4-[6-(1,6-diazaspiro[3.3]heptan-6-yl)-3-pyridyl]piperazin-1-yl]methyl]-6-methyl-morpholin-4-yl]-3-fluoro-pyrazolo[1,5-a]pyridine-7-carbonitrile] it is 30 nM; for `C[C@@H]1CN(c2ccc(C#N)c3ncccc23)C[C@H](CN2CCN(c3cncc(N4CCNCC4)c3)CC2)O1` [Example 7, 5-[(2R,6S)-2-methyl-6-[[4-(5-piperazin-1-yl-3-pyridyl)piperazin-1-yl]methyl]morpholin-4-yl]quinoline-8-carbonitrile] it is 34 nM.

For `C[C@@H]1CN(c2ccc(C#N)n3ncc(F)c23)C[C@H](CN2CCN(c3ccc(N[C@H]4CNC[C@H]4F)nc3)CC2)O1` [Example 167, 3-fluoro-4-[(2S,6R)-2-[[4-[6-[[(3S,4R)-4-fluoropyrrolidin-3-yl]amino]-3-pyridyl]piperazin-1-yl]methyl]-6-methyl-morpholin-4-yl]pyrazolo[1,5-a]pyridine-7-carbonitrile], the IC50 was determined as 14 nM. In the case of `C[C@@H]1CN(c2ccc(C#N)c3ncccc23)C[C@H](CN2CCN(c3nc(N4CCNCC4)ncc3F)CC2)O1` [Example 45, 5-[(2S,6R)-2-[[4-(5-fluoro-2-piperazin-1-yl-pyrimidin-4-yl)piperazin-1-yl]methyl]-6-methyl-morpholin-4-yl]quinoline-8-carbonitrile], the IC50 was 15 nM.

As for `Cc1cc(N2CCN(C[C@H]3CN(c4ccc(C#N)c5ncccc45)C[C@@H](C)O3)CC2)nc(N2CCOCC(N)C2)n1` (stereo partly drawn) [Example 56, 5-[(2S,6R)-2-[[4-[2-(6-amino-1,4-oxazepan-4-yl)-6-methyl-pyrimidin-4-yl]piperazin-1-yl]methyl]-6-methyl-morpholin-4-yl]quinoline-8-carbonitrile], the IC50 was 56 nM. To `C[C@@H]1CN(c2ccc(C#N)c3ncccc23)C[C@H](CN2CCN(c3ncc(N4CCNCC4)cn3)CC2)O1` [Example 17, 5-[(2R,6S)-2-methyl-6-[[4-(5-piperazin-1-ylpyrimidin-2-yl)piperazin-1-yl]methyl]morpholin-4-yl]quinoline-8-carbonitrile] belongs 31 nM; to `C[C@@H]1CN(c2ccc(C#N)c3ncccc23)C[C@H](CN2CCN(c3nc(N4CCNCC4)ncc3C#N)CC2)O1` [Example 50, 5-[(2S,6R)-2-[[4-(5-cyano-2-piperazin-1-yl-pyrimidin-4-yl)piperazin-1-yl]methyl]-6-methyl-morpholin-4-yl]quinoline-8-carbonitrile], 16 nM. As for `C[C@@H]1CN(c2ccc(C#N)c3ncccc23)C[C@H](CN2CCN(c3ccnc(N4CCC(N)CC4)n3)CC2)O1` [Example 27, 5-[(2S,6R)-2-[[4-[2-(4-amino-1-piperidyl)pyrimidin-4-yl]piperazin-1-yl]methyl]-6-methyl-morpholin-4-yl]quinoline-8-carbonitrile], the IC50 was found to be 15 nM. On to `C[C@@H]1CN(c2ccc(C#N)c3ncccc23)C[C@H](CN2CCN(c3ccnc(N4CCNCC4)n3)CC2)O1` [Example 15, 5-[(2R,6S)-2-methyl-6-[[4-(2-piperazin-1-ylpyrimidin-4-yl)piperazin-1-yl]methyl]morpholin-4-yl]quinoline-8-carbonitrile], for which the IC50 turned out to be 7 nM.

In the case of `Cc1cc(N2CCN(C[C@H]3CN(c4ccc(C#N)n5ncc(F)c45)C[C@@H](C)O3)CC2)nc(N2CCNCC2)n1` [Example 67, 3-Fluoro-4-[(2R,6S)-2-methyl-6-[[4-(6-methyl-2-piperazin-1-yl-pyrimidin-4-yl)piperazin-1-yl]methyl]morpholin-4-yl]pyrazolo[1,5-a]pyridine-7-carbonitrile], the IC50 came to 24 nM. Consider `C[C@@H]1CN(c2ccc(C#N)c3ncccc23)C[C@H](CN2CCN(c3ccnc(OCCN(C)C)n3)CC2)O1` [Example 30, 5-[(2S,6R)-2-[[4-[2-[2-(dimethylamino)ethoxy]pyrimidin-4-yl]piperazin-1-yl]methyl]-6-methyl-morpholin-4-yl]quinoline-8-carbonitrile], for which the IC50 worked out at 16 nM. Consider `C[C@@H]1CN(c2ccc(C#N)c3ncccc23)C[C@H](CN2CCN(c3cccc(N[C@H]4CNC[C@H]4F)n3)CC2)O1` [Example 37, 5-[(2S,6R)-2-[[4-[6-[[(3S,4R)-4-fluoropyrrolidin-3-yl]amino]-2-pyridyl]piperazin-1-yl]methyl]-6-methyl-morpholin-4-yl]quinoline-8-carbonitrile], for which the IC50 was 70 nM. For the compound `C[C@@H]1CN(c2ccc(C#N)n3ncc(F)c23)C[C@H](CN2CCN(c3ccc([C@@H]4CNCCO4)c(F)c3)CC2)O1` [Example 184, 3-fluoro-4-[(2S,6R)-2-[[4-[3-fluoro-4-[(2R)-morpholin-2-yl]phenyl]piperazin-1-yl]methyl]-6-methyl-morpholin-4-yl]pyrazolo[1,5-a]pyridine-7-carbonitrile], the IC50 was determined as 23 nM.

With `C[C@@H]1CN(c2ccc(C#N)c3ncccc23)C[C@H](CN2CCN(c3ccc(N4CCNCC4)cn3)CC2)O1` [Example 8, 5-[(2R,6S)-2-methyl-6-[[4-(5-piperazin-1-yl-2-pyridyl)piperazin-1-yl]methyl]morpholin-4-yl]quinoline-8-carbonitrile], the IC50 stood at 50 nM.
